The values that follow come from patent EP0529636B1, “Novel isatinoxime derivatives, their preparation and use” (NEUROSEARCH A/S, priority 1991, dated 1993).

Molecules are shown by their SMILES.

The target in assay [1] is AMPA ((RS)-α-amino-3-hydroxy-5-methyl-4-isoxazolepropionic acid) binding site. As to the kind of experiment: AMPA binding assay (T. Honoré et al., Neuroscience Letters 54, 27-32 (1985)). The method, then:
In the same assay 1,2,3,6,7,8-hexahydro-3-(hydroxyimino)-N,N,7-trimethyl-2-oxobenzo[2,1-b:3,4-c']dipyrrole-5-sulfonamide has an IC50 of 0.3 µM.

For assay [2], the system named is AMPA-induced clonic seizures. The assay can be described thus: AMPA-induced clonic seizures (AMPA seizure test). In kind it is in vivo, female NMRI mice. The conditions noted are these: Mus musculus, iv; test compound i.v. 5 min before 0.3 µg icv AMPA; dose inhibiting 50% of the mice from having clonic seizures. The procedure:
AMPA given icv (intracerebroventricular) (15 µg/kg) NMRI to mice induces clonic seizures which should be inhibited by non-NMDA receptor excitatory amino acid antagonists.
Test compound was given i.v. 5 min (or p.o. 30 min) before a 0.3 µg icv administration of AMPA to 10 female NMRI mice (weighing 24-26 g) per dose. The number of mice experiencing clonic seizures within the next 5 min was noted. An ED50 value was calculated as the dose inhibiting 50% of the mice from having clonic seizures.

As for `CN1Cc2c(S(=O)(=O)N(C)C)cc3c(c2C1)NC(=O)C3=NO` [1,2,3,6,7,8-hexahydro-3-(hydroxyimino)-N,N,7-trimethyl-2-oxobenzo[2,1-b:3,4-c']dipyrrole-5-sulfonamide], the IC50 (as a rule, the point on the concentration scale where inhibition reaches its midpoint) in assay [1] amounted to 300 nM.

In assay [1], `O=C1CCCc2c3c(cc([N+](=O)[O-])c2N1)C(=NO)C(=O)N3` [5-nitro-1H,6H-2,3,7,8,9,10-hexahydro-2,3,7-trioxo-azepino[2,3-g]indole-3-oxime] showed an IC50 of 4000 nM.

In the case of `CN1Cc2ccc3c(c2C1)NC(=O)C3=NO` [7-methyl-1,6,7,8-tetrahydrobenzo[2,1-b:3,4-c']dipyrrole-2,3-dione-3-oxime], in assay [1], the IC50 was determined as 1000 nM. Moreover, it took a dose of 8 mg/kg to reach the 50% effect level in assay [2] (ED50).
